From US20260285850A1, “SUBSTITUTED OXAZOLIDINONES AND IMIDAZOLINONES AS HERBICIDES” (FMC CORPORATION, priority 2023, published 2026)

Key:
Format in all cases: in vivo
[1] = test system: barnyardgrass (Echinochloa crus-galli); assay: Test A preemergence soil spray, visual injury rating 0-100; settings: 10 days, 0 = no effect, 100 = complete control
Procedure, shortened: (§1)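 Scale 0–100 (no effect to complete control), visual, versus untreated controls, read 10 days after application. Application: preemergence directed spray onto seeded loam–sand soil, or postemergence to young plants; formulation in non-phytotoxic solvent with surfactant.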

[2] = test system: blackgrass (Alopecurus myosuroides); assay: as above; settings: 10 days, 0 = no effect, 100 = complete control
Procedure, shortened: as §1

corn (Zea mays) [3] = assay: as above; settings: 10 days, 0 = no effect, 100 = complete control
Procedure, shortened: as §1

[4] = test system: green foxtail (Setaria viridis); assay: as above; settings: 10 days, 0 = no effect, 100 = complete control
Procedure, shortened: as §1

kochia (Bassia scoparia) [5] = assay: as above; settings: 10 days, 0 = no effect, 100 = complete control
Procedure, shortened: as §1

[6] = test system: oat, wild (wild oat, Avena fatua); assay: as above; settings: 10 days, 0 = no effect, 100 = complete control
Procedure, shortened: as §1

[7] = test system: palmer (palmer amaranth, palmer pigweed, Amaranthus palmeri); assay: as above; settings: 10 days, 0 = no effect, 100 = complete control
Procedure, shortened: as §1

[8] = test system: ragweed (common ragweed, Ambrosia artemisiifolia); assay: as above; settings: 10 days, 0 = no effect, 100 = complete control
Procedure, shortened: as §1

[9] = test system: ryegrass, Italian (italian ryegrass, Lolium multiflorum); assay: as above; settings: 10 days, 0 = no effect, 100 = complete control
Procedure, shortened: as §1

soybean (Glycine max) [10] = assay: as above; settings: 10 days, 0 = no effect, 100 = complete control
Procedure, shortened: as §1

[11] = test system: wheat (Triticum aestivum); assay: as above; settings: 10 days, 0 = no effect, 100 = complete control
Procedure, shortened: as §1

[12] = test system: barnyardgrass (Echinochloa crus-galli); assay: Test A postemergence application, visual injury rating 0-100; settings: 10 days
Procedure, shortened: as §1

[13] = test system: blackgrass (Alopecurus myosuroides); assay: as above; settings: 10 days
Procedure, shortened: as §1

corn (Zea mays) [14] = assay: as above; settings: 10 days
Procedure, shortened: as §1

[15] = test system: galium (catchweed bedstraw, Galium aparine); assay: as above; settings: 10 days
Procedure, shortened: as §1

[16] = test system: green foxtail (Setaria viridis); assay: as above; settings: 10 days
Procedure, shortened: as §1

[17] = test system: horseweed (Erigeron canadensis); assay: as above; settings: 10 days
Procedure, shortened: as §1

kochia (Bassia scoparia) [18] = assay: as above; settings: 10 days
Procedure, shortened: as §1

[19] = test system: oat, wild (wild oat, Avena fatua); assay: as above; settings: 10 days
Procedure, shortened: as §1

[20] = test system: palmer (palmer amaranth, palmer pigweed, Amaranthus palmeri); assay: as above; settings: 10 days
Procedure, shortened: as §1

[21] = test system: ragweed (common ragweed, Ambrosia artemisiifolia); assay: as above; settings: 10 days
Procedure, shortened: as §1

[22] = test system: ryegrass, Italian (italian ryegrass, Lolium multiflorum); assay: as above; settings: 10 days
Procedure, shortened: as §1

soybean (Glycine max) [23] = assay: as above; settings: 10 days
Procedure, shortened: as §1

[24] = test system: wheat (Triticum aestivum); assay: as above; settings: 10 days
Procedure, shortened: as §1

[25] = test system: barnyardgrass (Echinochloa crusgalli); assay: Test B flooded paddy test, visual plant response rating 0-100; settings: 250 g ai/ha, Flood, applied to paddy water, evaluated after 13 days
Procedure, shortened: (§2)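 In this flooded assay, 2-leaf seedlings received compound through the water layer, kept at 3 cm over the soil. Plants were held 13 days in a greenhouse and then visually compared with control pots.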

[26] = test system: ducksalad (Heteranthera limosa); assay: as above; settings: 250 g ai/ha, Flood, applied to paddy water, evaluated after 13 days
Procedure, shortened: as §2

rice (Oryza sativa) = assay: as above; settings: 250 g ai/ha, Flood, applied to paddy water, evaluated after 13 days
Procedure, shortened: as §2

[27] = test system: sedge, umbrella (small-flower umbrella sedge, Cyperus difformis); assay: as above; settings: 250 g ai/ha, Flood, applied to paddy water, evaluated after 13 days
Procedure, shortened: as §2

[28] = 31 g ai/ha, postemergence, 0 = no effect, 100 = complete control
[29] = Postemergence, 125 g ai/ha, 0 is no effect, 100 is complete control

## CC1(C(=O)NC2C=CC(C(=O)OCc3ccc(F)cc3)C2)CN(c2cc(F)cc(F)c2)C(=O)O1 (stereo not shown) [Compound 54]
[1]; 31 g ai/ha
  Barnyardgrass plant response rating (0-100): 30
[1]; 125 g ai/ha
  Barnyardgrass plant response rating (0 to 100 scale): 100
[2]; 31 g ai/ha
  Blackgrass plant response rating (0-100): 20
[2]; 125 g ai/ha
  Blackgrass plant response rating (0 to 100 scale): 60
Corn (Zea mays) [3]; 31 g ai/ha
  Corn plant response rating (0-100): 0
Corn (Zea mays) [3]; 125 g ai/ha
  Corn plant response rating (0 to 100 scale): 30
[4]; 31 g ai/ha
  Foxtail, Green plant response rating (0-100): 0
[4]; 125 g ai/ha
  Foxtail, Green plant response rating (0 to 100 scale): 30
Kochia (Bassia scoparia) [5]; 31 g ai/ha
  Kochia plant response rating (0-100): 0
Kochia (Bassia scoparia) [5]; 125 g ai/ha
  Kochia plant response rating (0 to 100 scale): 90
[6]; 31 g ai/ha
  Oat, Wild plant response rating (0-100): 0
[6]; 125 g ai/ha
  Oat, Wild plant response rating (0 to 100 scale): 90
[7]; 31 g ai/ha
  Amaranth, Palmer plant response rating (0-100): 10
[7]; 125 g ai/ha
  Amaranth, Palmer plant response rating (0 to 100 scale): 100
[8]; 31 g ai/ha
  Ragweed plant response rating (0-100): 0
[8]; 125 g ai/ha
  Ragweed plant response rating (0 to 100 scale): 0
[9]; 31 g ai/ha
  Ryegrass, Italian plant response rating (0-100): 50
[9]; 125 g ai/ha
  Ryegrass, Italian plant response rating (0 to 100 scale): 100
Soybean (Glycine max) [10]; 31 g ai/ha
  Soybean plant response rating (0-100): 10
Soybean (Glycine max) [10]; 125 g ai/ha
  Soybean plant response rating (0 to 100 scale): 70
[11]; 31 g ai/ha
  Wheat plant response rating (0-100): 80
[11]; 125 g ai/ha
  Wheat plant response rating (0 to 100 scale): 90
[12]; [28]
  Barnyardgrass plant response rating (0-100): 70
[12]; [29]
  Barnyardgrass plant response rating (0 to 100 scale): 100
[13]; [28]
  Blackgrass plant response rating (0-100): 80
[13]; [29]
  Blackgrass plant response rating (0 to 100 scale): 90
Corn (Zea mays) [14]; [28]
  Corn plant response rating (0-100): 90
Corn (Zea mays) [14]; [29]
  Corn plant response rating (0 to 100 scale): 100
[15]; [28]
  Galium plant response rating (0-100): 80
[15]; [29]
  Galium plant response rating (0 to 100 scale): 80
[16]; [28]
  Foxtail, Green plant response rating (0-100): 40
[16]; [29]
  Foxtail, Green plant response rating (0 to 100 scale): 60
[17]; [28]
  Horseweed plant response rating (0-100): 20
[17]; [29]
  Horseweed plant response rating (0 to 100 scale): 80
Kochia (Bassia scoparia) [18]; [28]
  Kochia plant response rating (0-100): 70
Kochia (Bassia scoparia) [18]; [29]
  Kochia plant response rating (0 to 100 scale): 90
[19]; [28]
  Oat, Wild plant response rating (0-100): 90
[19]; [29]
  Oat, Wild plant response rating (0 to 100 scale): 100
[20]; [28]
  Amaranth, Palmer plant response rating (0-100): 90
[20]; [29]
  Amaranth, Palmer / Pigweed, Palmer plant response rating (0 to 100 scale): 100
[21]; [28]
  Ragweed plant response rating (0-100): 50
[21]; [29]
  Ragweed plant response rating (0 to 100 scale): 60
[22]; [28]
  Ryegrass, Italian plant response rating (0-100): 70
[22]; [29]
  Ryegrass, Italian plant response rating (0 to 100 scale): 90
Soybean (Glycine max) [23]; [28]
  Soybean plant response rating (0-100): 60
Soybean (Glycine max) [23]; [29]
  Soybean plant response rating (0 to 100 scale): 60
[24]; [28]
  Wheat plant response rating (0-100): 90
[24]; [29]
  Wheat plant response rating (0 to 100 scale): 90
[25]
  Plant response rating, Barnyardgrass (0 to 100 scale, 0 is no effect and 100 is complete control): 90
[26]
  Plant response rating, Ducksalad (0 to 100 scale, 0 is no effect and 100 is complete control): 95
Rice (Oryza sativa)
  Plant response rating, Rice (0 to 100 scale, 0 is no effect and 100 is complete control): 15
[27]
  Plant response rating, Sedge, Umbrella (0 to 100 scale, 0 is no effect and 100 is complete control): 95
